Data published in patent publication US20250333407A1, “Compounds and Their Use for Treatment of Hemoglobinopathies” (Bristol-Myers Squibb Company, priority 2024, published 2025).

Key:
Type in all cases: cell-based
[1] = tested on: HbF; assay: HbF HiBiT induction assay in HUDEP-2 cells; conditions: HUDEP-2 cells with HiBiT tag in HBG1/2, 72 hours of treatment; area under the dose response curve, higher AUC = greater HbF induction
Protocol: HbF HiBiT induction assay. The HiBiT induction assay for HbF in HUDEP-2 cells was performed as described below. HUDEP-2 cells engineered to express a HiBiT tag in HBG1/2 were maintained at a density of 0.1-1×10^6 cells/ml in StemSpan SFEM II supplemented with 1% penicillin/streptomycin, hSCF (50 ng/mL), erythropoietin (EPO; 3 IU/mL), dexamethasone (DEX; 0.4 μg/mL), and doxycycline hyclate (DOX; 1 μg/mL). The cells were cultured in low adherence flasks, in a humidified incubator, set at 37° C. with 5% CO2. Cell counts and viability were measured by trypan blue exclusion using the Vi-CELL XR cell viability analyzer and the cell growth was consistently maintained in log phase.
Prior to the start of experiments, HbF HiBiT-tagged HUDEP-2 cells were transferred to a 50 mL conical and centrifuged at 500×g for 5 minutes, the supernatant removed, and the pellet washed in 5 mL of 1×PBS. The washed cells were centrifuged again at 500×g for 5 minutes and resuspended in IMDM containing; 1×glutamine, 1×penicillin/streptomycin, holo-transferrin (330 μg/mL), heparin (2 IU/mL), r-human insulin (10 μg/mL), EPO (3 IU/mL), 5% human plasma, hSCF (100 ng/mL) and DOX (1 μg/mL) to a final density of 0.3×10^6 cells/mL. Forty microliters of cell suspension were dispensed into 384-well Low Flange White Flat Bottom Polystyrene TC-treated Microplates containing pre-dispensed compounds, using a VIAFLO 384 liquid hander, and placed in a humidified incubator at 37° C. with 5% CO2. […] After 72 hours of treatment, 40 μL of Nano-Glo HiBiT Lytic Solution (prepared according to manufacturer's instructions) were dispensed into each well using a VIAFLO 384 liquid handler, and the plates were shaken for 20 seconds. Plates were incubated for 20 minutes at room temperature, and the luminescence was read as relative luminescent units using an EnVision plate reader.
Dose response curves were generated, and EC50, Ymax, and then area under the curve (AUC) values were calculated. HbF induction was measured using the calculated area under the curve (AUC) value, with higher AUC values indicative of greater HbF induction relative to lower AUC values.

[2] = molecular target: T1, ZBTB7A (Homo sapiens, UniProt O95365+Q96SW2); assay: HUDEP-2 ZBTB7A HiBiT degradation assay; conditions: HiBiT-tagged ZBTB7A degradation in HUDEP-2 cells, 24 hours of treatment; read-out: ZBTB7A EC50
T1 construct: HUDEP-2 cells engineered to express a HiBiT tag in either the WIZ (Widely interspaced zinc finger) or ZBTB7A
Protocol: (§1) WIZ Assay and ZBTB7A EC50 Assays. The HiBiT degradation assays for WIZ and ZBTB7A in HUDEP-2 cells were performed as described below. HUDEP-2 cells engineered to express a HiBiT tag in either the WIZ (Widely interspaced zinc finger) or ZBTB7A (Zinc Finger And BTB Domain Containing 7A) proteins were maintained in low attachment flasks in StemSpan SFEM II media supplemented with Penicillin-Streptomycin (50 U/mL), rhSCF (50 ng/mL), rhEPO (3 IU/mL), dexamethasone (0.4 μg/mL) and doxycycline (1 μg/mL). Prior to start of the assay, cell count and viability were measured by trypan blue exclusion using the Vi-cell XR cell viability analyzer.
For the HUDEP-2 ZBTB7A HiBiT assay, cell count and viability were measured by trypan blue exclusion using the Vi-cell XR cell viability analyzer and the cells were transferred to a 50 mL conical and centrifuged at 500 g for five minutes. Cells were resuspended in fresh IMDM media supplemented with L-Glutamine (1×), Penicillin-Streptomycin (50 U/mL), holo-transferrin (330 μg/mL), heparin (2 IU/mL), r-human Insulin (10 μg/mL), rhEPO (3 IU/mL), rhSCF (100 ng/mL)+Dox (1 μg/mL) and 5% human plasma in low attachment flasks, which were placed in a 37° C. incubator with 5% CO2. After 48 hours, cell count and viability were measured by trypan blue exclusion using the Vi-cell XR cell viability analyzer. The HUDEP-2 ZBTB7A cells were transferred to a 50 mL conical, centrifuged at 500 g for five minutes and resuspended at a density of 1.0×10^6 cells/ml in IMDM media supplemented with L-Glutamine (1×), Penicillin-Streptomycin (50 U/mL), holo-transferrin (330 μg/mL), heparin (2 IU/mL), r-human Insulin (10 μg/mL), rhEPO (3 IU/mL), rhSCF (100 ng/mL)+Dox (1 μg/mL) and 5% human plasma. Forty microliters of cell suspension was dispensed into 384-well Low Flange White Flat Bottom Polystyrene TC-treated Microplates containing pre-dispensed compounds, using a VIAFLO 384 liquid hander, and placed in a 37° C. incubator with 5% CO2. […] After 24 hours of treatment, 40 μL Nano-Glo HiBiT Lytic Detection System reagent was dispensed into each well using a VIAFLO 384 liquid hander. Plates were incubated for 25 minutes at room temperature and the luminescence was read as relative luminescent units using the EnVision plate reader. EC50 and Y-min values were calculated using curves calculated from dotmatics software after the normalization to the DMSO control of 10 different concentrations: 10, 3.33, 1.11, 0.37, 0.12, 0.04 0.0137, 0.0046, 0.0015 and […] respectively.

[3] = molecular target: T2, WIZ (Homo sapiens, UniProt O95785+Q96SW2); assay: HUDEP-2 WIZ HiBiT degradation assay; conditions: HiBiT-tagged WIZ degradation in HUDEP-2 cells, 24 hours of treatment; read-out: WIZ EC50
T2 construct: HUDEP-2 cells engineered to express a HiBiT tag in either the WIZ (Widely interspaced zinc finger) or ZBTB7A
Protocol: as §1
For the HUDEP-2 WIZ HiBiT assay, cells were transferred to a 50 mL conical and centrifuged at 500 g for five minutes. Cells were resuspended in fresh StemSpan SFEM II media supplemented with Penicillin-Streptomycin (50 U/mL), rhSCF (50 ng/mL), rhEPO (3 IU/mL), dexamethasone (0.4 μg/mL) and doxycycline (1 μg/mL) at a density of 1.0×10^6 cells/ml. Forty microliters of cell suspension was dispensed into 384-well Low Flange White Flat Bottom Polystyrene TC-treated Microplates containing pre-dispensed compounds, using a VIAFLO 384 liquid hander, and placed in a 37° C. incubator with 5% CO2. […] After 24 hours of treatment, 40 μL Nano-Glo HiBiT Lytic Detection System reagent was dispensed into each well using a VIAFLO 384 liquid hander. Plates were incubated for 25 minutes at room temperature and the luminescence was read as relative luminescent units using the EnVision plate reader. EC50 and Y-min values were calculated using curves calculated from dotmatics software after the normalization to the DMSO control of 10 different concentrations: 10, 3.33, 1.11, 0.37, 0.12, 0.04 0.0137, 0.0046, 0.0015 and […] respectively.

T2 sequence (O95785 whole entry): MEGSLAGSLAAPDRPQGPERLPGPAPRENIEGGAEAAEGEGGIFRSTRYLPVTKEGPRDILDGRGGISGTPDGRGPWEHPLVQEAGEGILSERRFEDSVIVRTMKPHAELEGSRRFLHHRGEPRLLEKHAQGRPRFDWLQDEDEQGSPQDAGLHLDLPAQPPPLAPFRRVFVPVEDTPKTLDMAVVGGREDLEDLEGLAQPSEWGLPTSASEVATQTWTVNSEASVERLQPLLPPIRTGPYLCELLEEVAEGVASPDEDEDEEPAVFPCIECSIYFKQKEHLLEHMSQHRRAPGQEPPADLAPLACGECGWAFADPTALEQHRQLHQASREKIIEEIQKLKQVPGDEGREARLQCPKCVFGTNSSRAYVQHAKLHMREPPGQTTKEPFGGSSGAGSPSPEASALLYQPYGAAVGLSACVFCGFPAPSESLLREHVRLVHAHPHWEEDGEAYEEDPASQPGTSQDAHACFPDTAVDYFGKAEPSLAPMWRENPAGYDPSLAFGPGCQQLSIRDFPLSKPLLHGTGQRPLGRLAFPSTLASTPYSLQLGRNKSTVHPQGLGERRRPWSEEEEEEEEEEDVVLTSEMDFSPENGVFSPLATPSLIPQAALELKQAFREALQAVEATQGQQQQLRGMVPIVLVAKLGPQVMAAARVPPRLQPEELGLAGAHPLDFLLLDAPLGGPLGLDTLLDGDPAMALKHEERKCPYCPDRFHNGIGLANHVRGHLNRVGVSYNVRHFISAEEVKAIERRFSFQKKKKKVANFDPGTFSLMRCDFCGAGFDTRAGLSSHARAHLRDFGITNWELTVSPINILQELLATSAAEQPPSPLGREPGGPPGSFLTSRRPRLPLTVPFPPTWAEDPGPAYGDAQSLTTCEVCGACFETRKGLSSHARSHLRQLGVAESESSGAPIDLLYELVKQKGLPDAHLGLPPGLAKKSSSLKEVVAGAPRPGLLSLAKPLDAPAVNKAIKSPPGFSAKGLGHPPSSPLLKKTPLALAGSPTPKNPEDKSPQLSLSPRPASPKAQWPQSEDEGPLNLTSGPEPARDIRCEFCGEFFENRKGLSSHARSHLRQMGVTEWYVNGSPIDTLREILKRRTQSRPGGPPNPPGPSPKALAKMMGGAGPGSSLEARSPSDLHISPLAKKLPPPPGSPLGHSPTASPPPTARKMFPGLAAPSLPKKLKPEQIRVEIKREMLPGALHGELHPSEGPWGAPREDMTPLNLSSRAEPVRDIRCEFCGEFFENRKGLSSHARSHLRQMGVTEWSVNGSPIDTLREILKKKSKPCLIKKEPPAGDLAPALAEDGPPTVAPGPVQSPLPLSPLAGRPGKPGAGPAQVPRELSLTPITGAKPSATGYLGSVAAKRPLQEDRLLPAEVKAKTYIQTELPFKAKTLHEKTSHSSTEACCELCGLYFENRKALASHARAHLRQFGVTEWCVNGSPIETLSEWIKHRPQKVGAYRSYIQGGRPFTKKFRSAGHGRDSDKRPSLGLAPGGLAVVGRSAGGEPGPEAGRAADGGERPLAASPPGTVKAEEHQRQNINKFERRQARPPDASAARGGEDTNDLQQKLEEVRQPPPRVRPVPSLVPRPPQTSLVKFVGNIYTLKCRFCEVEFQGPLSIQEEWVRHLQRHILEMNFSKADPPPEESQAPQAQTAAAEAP
T2 sequence (Q96SW2 whole entry): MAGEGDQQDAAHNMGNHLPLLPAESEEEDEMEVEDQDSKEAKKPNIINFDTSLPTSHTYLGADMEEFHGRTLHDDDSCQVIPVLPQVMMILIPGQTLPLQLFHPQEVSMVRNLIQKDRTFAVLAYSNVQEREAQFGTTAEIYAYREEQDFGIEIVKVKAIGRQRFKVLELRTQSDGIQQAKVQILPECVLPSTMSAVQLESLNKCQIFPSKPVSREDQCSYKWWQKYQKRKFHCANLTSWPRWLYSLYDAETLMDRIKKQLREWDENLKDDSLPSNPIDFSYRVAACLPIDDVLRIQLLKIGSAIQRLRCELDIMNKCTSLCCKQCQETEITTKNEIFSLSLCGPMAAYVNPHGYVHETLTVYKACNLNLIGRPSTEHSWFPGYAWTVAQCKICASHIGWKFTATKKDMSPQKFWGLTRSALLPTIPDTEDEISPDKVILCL
T2 sequence (Q16531 whole entry partner): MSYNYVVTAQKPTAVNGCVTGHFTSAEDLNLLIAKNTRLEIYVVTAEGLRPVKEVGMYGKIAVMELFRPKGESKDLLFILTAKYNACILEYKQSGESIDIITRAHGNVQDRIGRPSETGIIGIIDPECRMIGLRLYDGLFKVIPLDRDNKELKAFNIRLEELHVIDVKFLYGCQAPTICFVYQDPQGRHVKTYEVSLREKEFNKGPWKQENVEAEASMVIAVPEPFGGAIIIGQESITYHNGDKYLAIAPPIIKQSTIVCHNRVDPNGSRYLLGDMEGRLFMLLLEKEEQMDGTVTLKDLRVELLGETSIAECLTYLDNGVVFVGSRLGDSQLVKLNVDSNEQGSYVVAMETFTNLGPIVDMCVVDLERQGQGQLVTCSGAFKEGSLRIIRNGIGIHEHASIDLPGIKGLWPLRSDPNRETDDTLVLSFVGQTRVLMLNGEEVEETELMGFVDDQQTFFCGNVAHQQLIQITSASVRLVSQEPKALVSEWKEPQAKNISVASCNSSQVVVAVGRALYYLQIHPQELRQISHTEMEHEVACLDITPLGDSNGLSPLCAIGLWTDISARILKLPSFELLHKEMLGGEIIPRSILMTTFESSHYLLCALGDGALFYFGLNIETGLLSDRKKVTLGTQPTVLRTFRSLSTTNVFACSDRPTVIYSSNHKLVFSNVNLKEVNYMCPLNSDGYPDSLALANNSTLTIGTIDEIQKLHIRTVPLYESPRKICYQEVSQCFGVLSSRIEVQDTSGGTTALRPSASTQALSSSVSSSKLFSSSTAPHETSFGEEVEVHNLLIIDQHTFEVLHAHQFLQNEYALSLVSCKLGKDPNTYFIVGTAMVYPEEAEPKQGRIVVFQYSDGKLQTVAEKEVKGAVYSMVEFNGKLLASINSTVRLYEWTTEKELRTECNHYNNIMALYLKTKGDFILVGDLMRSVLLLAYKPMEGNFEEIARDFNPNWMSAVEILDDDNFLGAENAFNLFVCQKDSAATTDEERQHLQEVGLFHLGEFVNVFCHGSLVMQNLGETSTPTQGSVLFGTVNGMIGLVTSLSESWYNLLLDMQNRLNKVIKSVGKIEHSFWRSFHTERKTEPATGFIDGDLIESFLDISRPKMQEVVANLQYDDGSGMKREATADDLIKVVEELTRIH
T1 sequence (O95365 whole entry): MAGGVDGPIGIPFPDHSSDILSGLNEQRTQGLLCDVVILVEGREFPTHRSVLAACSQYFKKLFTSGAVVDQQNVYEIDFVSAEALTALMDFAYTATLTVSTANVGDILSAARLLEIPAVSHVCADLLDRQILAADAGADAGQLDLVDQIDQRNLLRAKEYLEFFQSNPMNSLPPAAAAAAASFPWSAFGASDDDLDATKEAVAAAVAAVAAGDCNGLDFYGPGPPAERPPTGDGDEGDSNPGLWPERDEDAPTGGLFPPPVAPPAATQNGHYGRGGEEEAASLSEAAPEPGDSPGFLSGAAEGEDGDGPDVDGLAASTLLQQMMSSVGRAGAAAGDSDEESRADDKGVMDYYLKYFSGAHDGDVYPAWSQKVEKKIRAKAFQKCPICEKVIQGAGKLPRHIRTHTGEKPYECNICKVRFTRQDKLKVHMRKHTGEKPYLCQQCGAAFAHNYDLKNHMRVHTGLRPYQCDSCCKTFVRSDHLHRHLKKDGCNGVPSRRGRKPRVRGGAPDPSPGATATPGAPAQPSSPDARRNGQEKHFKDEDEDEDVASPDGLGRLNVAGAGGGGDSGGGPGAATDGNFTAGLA
T1 sequence (Q96SW2 whole entry): as the sequence (Q96SW2 whole entry) above
T1 sequence (Q16531 whole entry partner): as the sequence (Q16531 whole entry partner) above

`Cc1cc(-c2cc3c(cc2Nc2cccc4c2C(=O)N(C2CCC(=O)NC2=O)C4=O)N(C)CCO3)ccn1` (centres unmarked) [Compound 1, 2-(2,6-dioxopiperidin-3-yl)-4-((4-methyl-7-(2-methylpyridin-4-yl)-3,4-dihydro-2H-benzo[b][1,4]oxazin-6-yl)amino)isoindoline-1,3-dione] was tested, and the “HBF AUC” value [1] was “+ (+ = 15 ≤ AUC < 100)”, the DC50 [2] was 18 nM and the DC50 [3] was 21 nM.

For `Cc1cc(-c2cc3c(cc2Nc2cccc4c2C(=O)N(C2CCC(=O)NC2=O)C4=O)N(C)C(=O)CO3)ccn1` (centres unmarked) [Compound 2, 2-(2,6-dioxopiperidin-3-yl)-4-((4-methyl-7-(2-methylpyridin-4-yl)-3-oxo-3,4-dihydro-2H-benzo[b][1,4]oxazin-6-yl)amino)isoindoline-1,3-dione], the “HBF AUC” value [1] was “+++ (+++ = AUC ≥ 150)”, the DC50 [2] was 11 nM and the DC50 [3] was 6 nM.

`Cc1cc(-c2cc3c(cc2Nc2cccc4c2C(=O)N([C@H]2CCC(=O)NC2=O)C4=O)N(C)[C@H](C)CO3)ccn1` [Compound 3, 4-(((R)-3,4-dimethyl-7-(2-methylpyridin-4-yl)-3,4-dihydro-2H-benzo[b][1,4]oxazin-6-yl)amino)-2-((S)-2,6-dioxopiperidin-3-yl)isoindoline-1,3-dione] was tested, and the “HBF AUC” value [1] was “+++ (+++ = AUC ≥ 150)”, the DC50 [2] was 29 nM and the DC50 [3] was 17 nM.

With `Cc1cc(-c2cc3c(cc2Nc2cccc4c2C(=O)N([C@H]2CCC(=O)NC2=O)C4=O)N(C)[C@@H](C)CO3)ccn1` [Compound 4, 4-(((S)-3,4-dimethyl-7-(2-methylpyridin-4-yl)-3,4-dihydro-2H-benzo[b][1,4]oxazin-6-yl)amino)-2-((S)-2,6-dioxopiperidin-3-yl)isoindoline-1,3-dione] the “HBF AUC” value [1] was “+++ (+++ = AUC ≥ 150)”, the DC50 [2] was 26 nM and the DC50 [3] was 83 nM.

`Cc1cc(-c2cc3c(cc2Nc2cccc4c2C(=O)N([C@H]2CCC(=O)NC2=O)C4=O)N(C)C(=O)[C@H](C)O3)ccn1` [Compound 5, 4-(((S)-2,4-dimethyl-7-(2-methylpyridin-4-yl)-3-oxo-3,4-dihydro-2H-benzo[b][1,4]oxazin-6-yl)amino)-2-((S)-2,6-dioxopiperidin-3-yl)isoindoline-1,3-dione] was tested, and the “HBF AUC” value [1] was “+ (+ = 15 ≤ AUC < 100)”, the DC50 [2] was 19 nM and the DC50 [3] was 15 nM.

In the case of `Cc1cc(-c2cc3c(cc2Nc2cccc4c2C(=O)N([C@H]2CCC(=O)NC2=O)C4=O)N(C)C(=O)[C@@H](C)O3)ccn1` [Compound 6, 4-(((R)-2,4-dimethyl-7-(2-methylpyridin-4-yl)-3-oxo-3,4-dihydro-2H-benzo[b][1,4]oxazin-6-yl)amino)-2-((S)-2,6-dioxopiperidin-3-yl)isoindoline-1,3-dione], the “HBF AUC” value [1] is reported as “+ (+ = 15 ≤ AUC < 100)”, the DC50 [2] is reported as 49 nM and the DC50 [3] is reported as 9 nM.

With `Cc1cc(-c2cc3c(cc2Nc2cccc4c2C(=O)N([C@H]2CCC(=O)NC2=O)C4=O)N(C)C(=O)CO3)c(F)cn1` [Compound 7, (S)-2-(2,6-dioxopiperidin-3-yl)-4-((7-(5-fluoro-2-methylpyridin-4-yl)-4-methyl-3-oxo-3,4-dihydro-2H-benzo[b][1,4]oxazin-6-yl)amino)isoindoline-1,3-dione] the “HBF AUC” value [1] was “+++ (+++ = AUC ≥ 150)”, the DC50 [2] was 9 nM and the DC50 [3] was 7 nM.

`Cc1cc(-c2cc3c(cc2Nc2cccc4c2C(=O)N([C@H]2CCC(=O)NC2=O)C4=O)N(C)C(=O)CO3)cc(C)n1` [Compound 8, (S)-4-((7-(2,6-dimethylpyridin-4-yl)-4-methyl-3-oxo-3,4-dihydro-2H-benzo[b][1,4]oxazin-6-yl)amino)-2-(2,6-dioxopiperidin-3-yl)isoindoline-1,3-dione] was tested, and the “HBF AUC” value [1] was “+++ (+++ = AUC ≥ 150)”, the DC50 [2] was 21 nM and the DC50 [3] was 15 nM.

In the case of `CN1C(=O)COc2cc(-c3ccnc(C(F)F)c3)c(Nc3cccc4c3C(=O)N([C@H]3CCC(=O)NC3=O)C4=O)cc21` [Compound 9, (S)-4-((7-(2-(difluoromethyl)pyridin-4-yl)-4-methyl-3-oxo-3,4-dihydro-2H-benzo[b][1,4]oxazin-6-yl)amino)-2-(2,6-dioxopiperidin-3-yl)isoindoline-1,3-dione], the “HBF AUC” value [1] is reported as “+ (+ = 15 ≤ AUC < 100)”, the DC50 [2] is reported as 32 nM and the DC50 [3] is reported as 24 nM.

With `Cc1cc(-c2cc3c(cc2Nc2cccc4c2C(=O)N([C@H]2CCC(=O)NC2=O)C4=O)N(C)C(=O)CO3)cc(N)n1` [Compound 10, (S)-4-((7-(2-amino-6-methylpyridin-4-yl)-4-methyl-3-oxo-3,4-dihydro-2H-benzo[b][1,4]oxazin-6-yl)amino)-2-(2,6-dioxopiperidin-3-yl)isoindoline-1,3-dione] the “HBF AUC” value [1] was “++ (++ = 100 ≤ AUC < 150)”, the DC50 [2] was 20 nM and the DC50 [3] was 12 nM.

With `Cc1cc(-c2cc3c(cc2Nc2cccc4c2C(=O)N([C@H]2CCC(=O)NC2=O)C4=O)N(C)C(=O)OC3)ccn1` [Compound 11, (S)-2-(2,6-dioxopiperidin-3-yl)-4-((1-methyl-6-(2-methylpyridin-4-yl)-2-oxo-1,4-dihydro-2H-benzo[d][1,3]oxazin-7-yl)amino)isoindoline-1,3-dione] the “HBF AUC” value [1] was “++ (++ = 100 ≤ AUC < 150)”, the DC50 [2] was 17 nM and the DC50 [3] was 21 nM.

For `Cc1cc(-c2cc3c(cc2Nc2cccc4c2C(=O)N(C2CCC(=O)NC2=O)C4=O)N(C)C(=O)C(C)(C)C3)ccn1` (centres unmarked) [Compound 85, 2-(2,6-dioxopiperidin-3-yl)-4-((1,3,3-trimethyl-6-(2-methylpyridin-4-yl)-2-oxo-1,2,3,4-tetrahydroquinolin-7-yl)amino)isoindoline-1,3-dione], the DC50 [2] was 43 nM and the DC50 [3] was 26 nM.
